Here are results for 50 compounds from US4486602A, “Valienamine derivatives, their production and use” (Takeda Chemical Industries, Ltd., priority 1980, dated 1984).

T2 sequence (P56729 with tags, fused parts or gaps limits assumed): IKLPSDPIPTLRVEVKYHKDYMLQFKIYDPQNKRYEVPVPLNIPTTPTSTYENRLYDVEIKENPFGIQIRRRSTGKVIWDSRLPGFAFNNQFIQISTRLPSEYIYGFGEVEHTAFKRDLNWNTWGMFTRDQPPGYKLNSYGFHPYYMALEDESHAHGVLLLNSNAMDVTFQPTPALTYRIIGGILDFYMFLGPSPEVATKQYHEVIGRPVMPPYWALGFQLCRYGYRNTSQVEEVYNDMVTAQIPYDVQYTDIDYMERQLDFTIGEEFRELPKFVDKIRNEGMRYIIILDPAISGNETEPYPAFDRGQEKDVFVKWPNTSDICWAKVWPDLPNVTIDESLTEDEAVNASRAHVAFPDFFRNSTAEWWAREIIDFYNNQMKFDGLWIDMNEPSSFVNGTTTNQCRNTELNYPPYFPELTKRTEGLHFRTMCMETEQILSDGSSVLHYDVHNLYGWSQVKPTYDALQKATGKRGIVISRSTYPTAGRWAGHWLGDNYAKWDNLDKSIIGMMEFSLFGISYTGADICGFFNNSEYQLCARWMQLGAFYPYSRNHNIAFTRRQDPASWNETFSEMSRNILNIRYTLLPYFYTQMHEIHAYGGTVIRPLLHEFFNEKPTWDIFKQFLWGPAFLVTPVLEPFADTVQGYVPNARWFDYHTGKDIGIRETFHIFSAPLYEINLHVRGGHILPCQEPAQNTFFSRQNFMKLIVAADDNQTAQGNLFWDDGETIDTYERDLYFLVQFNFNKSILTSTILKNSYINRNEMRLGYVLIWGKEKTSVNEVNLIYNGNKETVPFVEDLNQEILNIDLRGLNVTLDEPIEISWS
T2 sequence (P56729 with tags, fused parts or gaps partner limits assumed): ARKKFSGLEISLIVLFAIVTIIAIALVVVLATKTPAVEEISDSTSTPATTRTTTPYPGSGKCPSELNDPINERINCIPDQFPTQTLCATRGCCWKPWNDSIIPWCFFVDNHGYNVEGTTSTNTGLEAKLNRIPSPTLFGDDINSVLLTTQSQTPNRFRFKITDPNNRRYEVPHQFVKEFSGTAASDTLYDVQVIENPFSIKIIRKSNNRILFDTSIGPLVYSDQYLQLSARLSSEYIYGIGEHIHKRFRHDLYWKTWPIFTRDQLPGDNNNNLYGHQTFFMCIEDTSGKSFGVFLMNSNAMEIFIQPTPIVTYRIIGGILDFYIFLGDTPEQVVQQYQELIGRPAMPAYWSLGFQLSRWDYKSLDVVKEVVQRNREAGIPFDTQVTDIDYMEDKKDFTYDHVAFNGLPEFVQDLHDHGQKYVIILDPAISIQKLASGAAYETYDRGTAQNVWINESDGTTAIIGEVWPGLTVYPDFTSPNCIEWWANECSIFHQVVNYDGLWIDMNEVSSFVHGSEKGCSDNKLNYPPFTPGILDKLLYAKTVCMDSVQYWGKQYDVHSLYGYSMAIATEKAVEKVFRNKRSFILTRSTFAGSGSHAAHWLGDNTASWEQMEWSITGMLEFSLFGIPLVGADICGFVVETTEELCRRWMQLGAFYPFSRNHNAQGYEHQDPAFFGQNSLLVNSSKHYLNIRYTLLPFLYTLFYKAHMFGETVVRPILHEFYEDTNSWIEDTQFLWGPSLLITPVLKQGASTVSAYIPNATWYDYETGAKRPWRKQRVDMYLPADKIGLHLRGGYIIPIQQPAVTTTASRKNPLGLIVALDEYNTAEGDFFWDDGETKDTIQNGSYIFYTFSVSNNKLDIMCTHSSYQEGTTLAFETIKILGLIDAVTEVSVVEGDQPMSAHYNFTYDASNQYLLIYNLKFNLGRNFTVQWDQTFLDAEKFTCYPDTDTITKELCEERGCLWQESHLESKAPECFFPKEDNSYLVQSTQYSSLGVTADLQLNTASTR

For one experiment, the system named is α-glucoside hydrolase. The experiment can be described thus: suppression of α-glucoside hydrolase function (statement in words).
Settings: not given
The experiment is classed as biochemical.
Turning to `N[C@H]1C=C(CO)[C@@H](O)[C@H](O)[C@H]1O` [valienamine], the “action of suppressing the function of α-glucoside hydrolase” value is reported as “possesses a highly valuable action of suppressing the function of α-glucoside hydrolase”.

Another experiment has as its target maltase (porcine intestinal mucosa). The experiment can be described thus: inhibitory activity against maltase, 0.05M maltose as substrate. The experiment is classed as biochemical. Conditions: Table 2, read-out: IC50 (molar concentration required for 50% inhibition). Here is the method: (§1) When 0.05M maltose is used as a substrate, the inhibitory activity against maltase prepared from porcine intestinal mucosa is determined by measuring the amount of released D-glucose by use of glucose oxidase [Glucose B-Test Wako (a reagent for clinical diagnostic use for determining glucose, produced by Wako Pure Chemical Co. Japan)] to calculate the 50% inhibition concentration. The molar concentration required for 50% inhibition (IC50) of the α-glucosidase inhibitors represented by the formula [I], to inhibit activity of α-glucosidase (yeast), is shown in Table 1 and that to inhibit activity of maltase (porcine intestinal mucosa) is in Table 2.
In the case of `OCC1=C[C@H](NCc2ccc(Br)cc2)[C@H](O)[C@@H](O)[C@@H]1O`, the IC50 turned out to be 75 µM.
On the same count and under the same terms, the result for `OCC1=C[C@H](NCC(O)COc2ccccc2)[C@H](O)[C@@H](O)[C@@H]1O` (some centres unmarked) reads 24 µM; that for `OCC1=C[C@H](NC(CO)c2ccccc2)[C@H](O)[C@@H](O)[C@@H]1O` (some centres unmarked), 14 µM.
On to `OCC1=C[C@H](NC(CO)C(O)c2ccccc2)[C@H](O)[C@@H](O)[C@@H]1O` (some centres unmarked), for which the IC50 was 9.6 µM.
Same read-out and setting: the result for `OCC1=C[C@H](NCc2ccc(O)c(O)c2)[C@H](O)[C@@H](O)[C@@H]1O` reads 8.1 µM; that for `OCC1=C[C@H](NCCc2ccccc2)[C@H](O)[C@@H](O)[C@@H]1O` [drawing 38], 11 µM.
Regarding `OCC1=C[C@H](NCCCc2ccccc2)[C@H](O)[C@@H](O)[C@@H]1O` [drawing 39], the IC50 worked out at 20 µM.
The same measure, in the same setting: for `OCC1=C[C@H](NCCCCc2ccccc2)[C@H](O)[C@@H](O)[C@@H]1O` [drawing 40] the value was 80 µM; for `OCC1=C[C@H](NCC(O)c2ccccc2)[C@H](O)[C@@H](O)[C@@H]1O` (some centres unmarked) [drawing 41], 3.2 µM; for `OCC1=C[C@H](NCc2ccc(O)cc2)[C@H](O)[C@@H](O)[C@@H]1O` [drawing 43], 19 µM.
For `CC(Cc1ccccc1)N[C@H]1C=C(CO)[C@@H](O)[C@H](O)[C@H]1O` (some centres unmarked) [drawing 46], the IC50 was 2.4 µM.
As to `COc1ccccc1C(O)CN[C@H]1C=C(CO)[C@@H](O)[C@H](O)[C@H]1O` (some centres unmarked) [drawing 47], the IC50 was 3.1 µM.
As to `CC(C)=CCC/C(C)=C/CN[C@H]1C=C(CO)[C@@H](O)[C@H](O)[C@H]1O` [drawing 48], the IC50 came to 5.2 µM.
Consider `OCC1=C[C@H](NC(CO)CO)[C@H](O)[C@@H](O)[C@@H]1O` [drawing 49], for which the IC50 came out at 14 µM.
On the same count and under the same terms, for `OCC1=C[C@H](NC(CO)[C@@H](O)[C@H](O)[C@@H](O)CO)[C@H](O)[C@@H](O)[C@@H]1O` (some centres unmarked) [drawing 50] the value was 14 µM.

The target of the next experiment is T1, α-glucosidase (yeast, type I) (Saccharomyces cerevisiae, UniProt P53341).
T1 construct: purchased Sigma Chemicals, U.S.A
T1 sequence (P53341 whole entry): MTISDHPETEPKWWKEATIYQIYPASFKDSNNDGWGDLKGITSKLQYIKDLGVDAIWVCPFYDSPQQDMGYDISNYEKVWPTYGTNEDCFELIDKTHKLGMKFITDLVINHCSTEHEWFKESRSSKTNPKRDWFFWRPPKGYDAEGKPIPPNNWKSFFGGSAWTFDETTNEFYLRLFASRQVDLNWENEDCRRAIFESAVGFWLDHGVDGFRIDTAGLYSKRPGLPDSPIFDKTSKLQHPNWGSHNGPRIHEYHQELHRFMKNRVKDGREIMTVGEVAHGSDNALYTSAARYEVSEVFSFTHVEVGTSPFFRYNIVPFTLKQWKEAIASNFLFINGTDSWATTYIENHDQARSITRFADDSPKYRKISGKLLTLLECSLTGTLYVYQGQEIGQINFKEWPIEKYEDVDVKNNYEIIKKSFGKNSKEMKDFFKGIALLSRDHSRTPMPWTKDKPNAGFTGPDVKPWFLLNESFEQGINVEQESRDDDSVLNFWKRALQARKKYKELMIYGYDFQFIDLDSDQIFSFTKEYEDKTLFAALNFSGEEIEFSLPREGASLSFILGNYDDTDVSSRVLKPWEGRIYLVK
The experiment can be described thus: α-glucosidase inhibitory activity, p-nitrophenyl-α-D-glucopyranoside as substrate. The experiment is classed as biochemical.
Settings: not given
The procedure:
The inhibitory activity of the compounds of this invention against α-glucosidase (yeast, type I, produced by Sigma Chemicals, U.S.A.), when p-nitrophenyl-α-D-glucopyranoside is used as a substrate, is determined by adding 0.5 ml of a solution of an inhibitor of this invention in 0.02M phosphate buffer (pH 6.8) and 0.25 ml of 0.01M p-nitrophenyl-α-D-glucopyranoside in the same buffer to 0.25 ml of a solution of α-glucosidase in the same buffer (0.005 mg/ml), allowing the reaction to proceed at 37° C. for 15 minutes, then adding 3 ml of 0.1M aqueous sodium carbonate solution to terminate the reaction, and measuring the absorbance of the reaction solution at 400 nm. The 50% inhibition concentration of the inhibitor is calculated from the inhibition rates (%) which are determined with inhibitory substance samples of three to five different concentrations.
as §1
The compound `CC(Cc1ccccc1)N[C@H]1C=C(CO)[C@@H](O)[C@H](O)[C@H]1O` (stereo partly drawn) [Example 21, N-(α-methylphenethyl)valienamine] registered an IC50 of 0.13 µM.

Still in this experiment, the particulars now being: Table 1; α-glucosidase (yeast); pH 6.8, 37° C., 15 minutes; read-out: IC50 (molar concentration required for 50% inhibition).
As for `OCC1=C[C@H](NCc2ccccc2)[C@H](O)[C@@H](O)[C@@H]1O`, the IC50 is 9.2 µM.
`OCC1=C[C@H](NCc2cccs2)[C@H](O)[C@@H](O)[C@@H]1O`: the IC50 is 38 µM.
Regarding `OCC1=C[C@H](NCc2ccco2)[C@H](O)[C@@H](O)[C@@H]1O`, the IC50 was determined as 150 µM.
`OCC1=C[C@H](NCc2cccnc2)[C@H](O)[C@@H](O)[C@@H]1O`: the IC50 was 56 µM.
Turning to `Cc1ccc(CN[C@H]2C=C(CO)[C@@H](O)[C@H](O)[C@H]2O)cc1`, the IC50 was found to be 20 µM.
`COc1ccc(CN[C@H]2C=C(CO)[C@@H](O)[C@H](O)[C@H]2O)cc1`: the IC50 amounted to 18 µM.
Still for that read-out and setting: for `O=C(O)c1ccc(CN[C@H]2C=C(CO)[C@@H](O)[C@H](O)[C@H]2O)cc1` the value was 150 µM.
Still for that read-out and setting: the result for `CC(N[C@H]1C=C(CO)[C@@H](O)[C@H](O)[C@H]1O)c1ccccc1` (some centres unmarked) reads 13 µM; that for `CC(CN[C@H]1C=C(CO)[C@@H](O)[C@H](O)[C@H]1O)c1ccccc1` (some centres unmarked), 13 µM.
For the compound `OCC1=C[C@H](NCC=Cc2ccccc2)[C@H](O)[C@@H](O)[C@@H]1O`, the IC50 came out at 20 µM.
With `OCC1=C[C@H](NCCCOc2ccccc2)[C@H](O)[C@@H](O)[C@@H]1O`, the IC50 worked out at 1.1 µM.
For the compound `OCC1=C[C@H](NCCCCCc2ccccc2)[C@H](O)[C@@H](O)[C@@H]1O`, the IC50 worked out at 0.75 µM.
Regarding `OCC1=C[C@H](NCC(c2ccccc2)c2ccccc2)[C@H](O)[C@@H](O)[C@@H]1O`, the IC50 was 0.038 µM.
`OCC1=C[C@H](NCC2CCCCC2)[C@H](O)[C@@H](O)[C@@H]1O`: the IC50 was 0.38 µM.
Turning to `CC(C)(C)c1cc(CN[C@H]2C=C(CO)[C@@H](O)[C@H](O)[C@H]2O)cc(C(C)(C)C)c1O`, the IC50 stood at 12 µM.
Same read-out and setting: for `OCC1=C[C@H](NC[C@H](O)[C@@H](O)[C@H](O)[C@H](O)CO)[C@H](O)[C@@H](O)[C@@H]1O` the value was 110 µM; for `OCC1=C[C@H](NC[C@H](O)[C@@H](O)[C@@H](O)[C@H](O)CO)[C@H](O)[C@@H](O)[C@@H]1O`, 160 µM; for `OCC1=C[C@H](NC(CO)[C@@H](O)[C@H](O)[C@H](O)CO)[C@H](O)[C@@H](O)[C@@H]1O` (some centres unmarked), 110 µM.
With `OCC1=C[C@H](NC[C@@H](O)[C@@H](O)[C@H](O)[C@H](O)CO)[C@H](O)[C@@H](O)[C@@H]1O`, the IC50 was determined as 100 µM.
Turning to `OCC1=C[C@H](NC[C@@H](O)[C@H](O)[C@H](O)CO)[C@H](O)[C@@H](O)[C@@H]1O`, the IC50 amounted to 120 µM.
The same measure, in the same setting: the result for `OCC1=C[C@H](NC[C@H](O)[C@H](O)[C@H](O)CO)[C@H](O)[C@@H](O)[C@@H]1O` reads 90 µM.
`OCC1=C[C@H](NC[C@H](O)[C@@H](O)[C@H](O)CO)[C@H](O)[C@@H](O)[C@@H]1O`: the IC50 turned out to be 110 µM.
On to `CCCCN[C@H]1C=C(CO)[C@@H](O)[C@H](O)[C@H]1O` [CH2 CH2 CH2 CH3, N-n-butylvalienamine], for which the IC50 came out at 21 µM.
For the compound `OCC1=C[C@H](NCCc2ccccc2)[C@H](O)[C@@H](O)[C@@H]1O` [drawing 15], the IC50 amounted to 1.8 µM.
The same measure, in the same setting: for `OCC1=C[C@H](NCC(O)c2ccccc2)[C@H](O)[C@@H](O)[C@@H]1O` (some centres unmarked) [drawing 16] the value was 1.1 µM; for `OCC1=C[C@H](NCCCc2ccccc2)[C@H](O)[C@@H](O)[C@@H]1O` [drawing 18], 2.2 µM; for `OCC1=C[C@H](NCCCCc2ccccc2)[C@H](O)[C@@H](O)[C@@H]1O` [drawing 20], 0.98 µM.
Consider `OCC1=C[C@H](NCc2ccc(O)cc2)[C@H](O)[C@@H](O)[C@@H]1O` [drawing 23], for which the IC50 is 5 µM.
Regarding `COc1ccccc1C(O)CN[C@H]1C=C(CO)[C@@H](O)[C@H](O)[C@H]1O` (some centres unmarked) [drawing 24], the IC50 was determined as 0.38 µM.
As for `CC(C)=CCC/C(C)=C/CN[C@H]1C=C(CO)[C@@H](O)[C@H](O)[C@H]1O` [drawing 27], the IC50 was 1.7 µM.
In the case of `OCC1=C[C@H](NC(CO)CO)[C@H](O)[C@@H](O)[C@@H]1O` [drawing 29], the IC50 worked out at 66 µM.
With `OCC1=C[C@H](NC(CO)[C@@H](O)[C@H](O)[C@@H](O)CO)[C@H](O)[C@@H](O)[C@@H]1O` (some centres unmarked) [drawing 37], the IC50 came to 130 µM.

The next experiment concerns the target T2, saccharase (porcine intestinal mucosa) (Sus scrofa, UniProt P56729).
T2 construct: saccharase prepared from porcine intestinal mucosa; from tissue; host or cells: porcine intestinal mucosa
Nature of the experiment: inhibitory activity against saccharase. The experiment is classed as biochemical.
Settings: not given
The procedure:
The inhibitory activity against saccharase prepared from porcine intestinal mucosa is determined by a similar method to that against maltase in accordance with the method described in Acta. Chem. Scand., 12, 1997-2006 (1958).
The compound `OCC1=C[C@H](NC2CCCCC2O)[C@H](O)[C@@H](O)[C@@H]1O` (some centres unmarked) [Example 36, N-(2-hydroxycyclohexyl)valienamine] had an IC50 of 0.17 µM.
